Results from article PMC4416488 (Bioorganic & medicinal chemistry letters, 2015).

Tests used:
tubulin = experiment: Inhibition of tubulin assembly
[1] = tested on: A549 human lung cancer cell line; experiment: Cytotoxic activity against A549 lung cancer cell line

SMILES | Activity as tubulin polymerization/assembly inhibitor (in words) (tubulin) | Cytotoxic activity against A549 cell line (in words) [1]
COC(=O)Nc1nc2ccc(/C=C\c3cc(OC)c(OC)c(OC)c3)cc2[nH]1 [Compound 1] | excellent activities | –
COC(=O)Nc1nc2ccc(C(=O)c3ccc(OC)cc3O)cc2[nH]1 [Compound 2] | excellent activities | no activity
COC(=O)Nc1nc2ccc(C(=O)c3ccc(O)cc3O)cc2[nH]1 [Compound 3] | inactive | no activity
COC(=O)Nc1nc2ccc(C(=O)c3sccc3O)cc2[nH]1 [Compound 4] | excellent activities | –
